Columns and labels:
Cytidine Deaminase (CDA) [1] = molecular target: T1, Cytidine Deaminase (CDA) (Homo sapiens, UniProt P32320, K27Q); assay: CDA-mediated deamination monitored by emission; conditions: for k1 / k2: Michaelis-Menten differential equations; for k−1: Michaelis-Menten, values assumed to be ≤10% of k1 values; for Km: calculated from k1, k−1 and k2
Cytidine Deaminase (CDA) [2] = molecular target: T1, Cytidine Deaminase (CDA); assay: HPLC analysis of enzymatic deamination reactions; type: biochemical; conditions: after 60 minutes
Cytidine Deaminase (CDA) [3] = molecular target: T1, Cytidine Deaminase (CDA); assay: CDA-mediated deamination monitored by absorbance; conditions: for k1 / k2: Michaelis-Menten differential equations; for k−1: Michaelis-Menten, values assumed to be ≤10% of k1 values; for Km: calculated from k1, k−1 and k2
[4] = pseudo-first order fit to emission curves
[5] = pseudo-first order fit, emission (Em)
[6] = pseudo-first order fit to absorption curves
[7] = pseudo-first order fit, absorption (Abs)

T1 sequence (P32320 whole entry K27Q): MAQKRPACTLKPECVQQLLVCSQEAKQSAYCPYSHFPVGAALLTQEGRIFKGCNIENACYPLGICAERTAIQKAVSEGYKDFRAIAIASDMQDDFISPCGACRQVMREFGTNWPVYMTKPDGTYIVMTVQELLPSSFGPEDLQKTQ

Row | SMILES | k1 (Cytidine Deaminase (CDA) [1]; emission (Em)) [M⁻¹ s⁻¹] | k2 (Cytidine Deaminase (CDA) [1]; emission (Em)) [s⁻¹] | k−1 (Cytidine Deaminase (CDA) [1]; emission (Em)) [s⁻¹] | Km (Cytidine Deaminase (CDA) [1]; emission (Em)) [µM] | kapp (Cytidine Deaminase (CDA) [1]; [4]) [s^–1] | kapp (Cytidine Deaminase (CDA) [1]; [5]) | t1/2 (Cytidine Deaminase (CDA) [1]; [5]) [min] | conversion to corresponding U analogue by CDA (HPLC) (Cytidine Deaminase (CDA) [2]) | k1 (Cytidine Deaminase (CDA) [3]; absorption (Abs)) [M⁻¹ s⁻¹] | k2 (Cytidine Deaminase (CDA) [3]; absorption (Abs)) [s⁻¹] | k−1 (Cytidine Deaminase (CDA) [3]; absorption (Abs)) [s⁻¹] | Km (Cytidine Deaminase (CDA) [3]; absorption (Abs)) [µM] | kapp (Cytidine Deaminase (CDA) [3]; [6]) [s^–1] | kapp (Cytidine Deaminase (CDA) [3]; [7]) | t1/2 (Cytidine Deaminase (CDA) [3]; [7]) [min]
1 | Cc1sc([C@@H]2O[C@H](CO)[C@@H](O)[C@H]2O)c2[nH]c(=O)nc(N)c12 [^mthC] | 710000 ± 180000 | 45 ± 2.3 | 0.071 | 63 | 5.7 ± 0.1 | 5.7 ± 0.1 x 10^−3 s^−1 | 2 ± 0.13 | complete conversion | 750000 ± 160000 | 56 ± 5.9 | 0.075 | 75 | 6.1 ± 0.2 | 6.1 ± 0.2 x 10^−3 s^−1 | 1.83 ± 0.033
2 | Nc1nc(=O)[nH]c2c([C@@H]3O[C@H](CO)[C@@H](O)[C@H]3O)scc12 [^thC] | 950000 ± 140000 | 46 ± 5.3 | 0.095 | 49 | 7.4 ± 0.1 | 7.4 ± 0.1 x 10^−3 s^−1 | 1.57 ± 0.033 | complete conversion | 1.01e+06 ± 470000 | 34 ± 7.2 | 0.101 | 34 | 7.2 ± 0.2 | 7.2 ± 0.2 x 10^−3 s^−1 | 1.53 ± 0.083
3 | Nc1nc(=O)[nH]c2c([C@@H]3O[C@H](CO)[C@@H](O)[C@H]3O)snc12 [^tzC] | 1.06e+06 ± 320000 | 4.6 ± 1.3 | 0.106 | 4.4 | 4.1 ± 0.1 | 4.1 ± 0.1 x 10^−3 s^−1 | 2.83 ± 0.167 | complete conversion | 1.04e+06 ± 10000 | 3.2 ± 0.3 | 0.104 | 3.1 | 3.3 ± 0.1 | 3.3 ± 0.1 x 10^−3 s^−1 | 3.5 ± 0.267
